Here are results for 5 molecules from patent US20090062304A1, “Benzimidazole derivatives and their use for modulating the gaba-alpha receptor complex” (priority 2005, published 2009).

As a reminder, the melting point is the temperature, or range, at which the solid turns liquid. The term IC50 denotes the concentration at which inhibition is half-maximal. Low values mean greater potency, high ones weaker potency.

Data set [1] deals with benzodiazepine modulatory unit of the GABAA receptor complex. The data set can be described thus: In vitro inhibition of 3H-flunitrazepam (3H-FNM) binding. The conditions noted are these: inhibition of specific 3H-FNM (1 nM) binding, rat cerebral cortex membranes, 40 min at 2° C. The method, then: In Vitro Inhibition of ^3H-flunitrazepam (^3H-FNM) Binding
The GABA recognition site and the benzodiazepine modulatory unit can selectively be labelled with ^3H-flunitrazepam.
Preparations are performed at 0-4° C. unless otherwise indicated. Cerebral cortex from male Wistar rats (150-200 g) is homogenised for 5-10 sec in 20 ml Tris-HCl (30 mM, pH 7.4) using an Ultra-Turrax homogeniser. The suspension is centrifuged at 27,000×g for 15 min and the pellet is washed three times with buffer (centrifuged at 27,000×g for 10 min). The washed pellet is homogenized in 20 ml of buffer and incubated on a water bath (37° C.) for 30 min to remove endogenous GABA and then centrifuged for 10 min at 27,000×g. The pellet is then homogenized in buffer and centrifuged for 10 min at 27,000×g. The final pellet is resuspended in 30 ml buffer and the preparation is frozen and stored at −20° C.
The membrane preparation is thawed and centrifuged at 2° C. for 10 min at 27,000×g. The pellet is washed twice with 20 ml 50 mM Tris-citrate, pH 7.1 using an Ultra-Turrax homogeniser and centrifuged for 10 min at 27,000×g. The final pellet is resuspended in 50 mM Tris-citrate, pH 7.1 (500 ml buffer per g of original tissue), and then used for binding assays. Aliquots of 0.5 ml tissue are added to 25 μl of test solution and 25 μl of ^3H-FNM (1 nM, final concentration), mixed and incubated for 40 min at 2° C. Non-specific binding is determined using Clonazepam (1 μM, final concentration). After incubation the samples are added 5 ml of ice-cold buffer and poured directly onto Whatman GF/C glass fibre filters under suction and immediately washed with 5 ml ice-cold buffer. The amount of radioactivity on the filters is determined by conventional liquid scintillation counting. Specific binding is total binding minus non-specific binding.
25-75% inhibition of specific binding must be obtained, before calculation of an IC50.
The test value will be given as IC50 (the concentration (μM) of the test substance which inhibits the specific binding of ^3H-FNM by 50%).
Co is specific binding in control assays, and […]

For the molecule `COc1ccc2c(c1)ncn2-c1cccc(N2CCN(C(C)=O)CC2)c1`, the melting point is 157 °C.

For `CC(=O)N1CCN(c2cccc(-n3cnc4cc(C(C)O)ccc43)c2)CC1` (stereo not shown) [Compound 33, 1-(4-{3-[5-(1-Hydroxy-ethyl)-benzoimidazol-1-yl]-phenyl}-piperazin-1-yl)-ethanone], the melting point was determined as 126 °C. In addition, the IC50 in data set [1] came to 9.6 nM.

`CC(=O)N1CCN(c2cccc(-n3cnc4cc(C(F)(F)F)ccc43)c2)CC1` gave a melting point of 143 to 146 °C.

`CC(=O)N1CCN(c2cccc(-n3cnc4cc(C(C)C)ccc43)c2)CC1` [Compound 38, 1-{4-[3-(5-Isopropyl-benzoimidazol-1-yl)-phenyl]-piperazin-1-yl}-ethanone] showed an IC50 in data set [1] of 5 nM.

Consider `CC(=O)N1CCN(c2cccc(-n3cnc4cc(C)ccc43)c2)CC1` [Compound 23, 1-{4-[3-(5-Methyl-benzoimidazol-1-yl)-phenyl]-piperazin-1-yl}-ethanone], for which the melting point was in the range of 145 to 146 °C. For the same molecule, the IC50 in data set [1] came out at 2.6 nM.
